What was measured:
[1] = Pharmacokinetics of PTH (1-34) in albumin crystal capsule (Vitamin E) vs IV, plasma PTH (1-34) by ELISA; type: in vivo, Minipigs (Yorkshire); settings: 0.04 mg
From the text: The PTH (1-34) was processed to prepare albumin microparticles containing PTH according to the procedure mentioned under Example 4. The microparticle of albumin crystals containing PTH was then lyophilized after washing with cold isopropanol. […] The capsule was then closed.
(§1) Pigs in the oral treatment group was either fasted overnight or fed prior to the test sample administration. […] The time of dosage of each animal was noted. […] An antibody, anti-PTH (1-34) was pre-coated onto a 96-well plate. […] The intensity of the yellow color is proportional to the PTH (1-34) amount bound on the plate.

[2] = Pharmacokinetics of PTH (1-34) in albumin crystal sugar truffle shell vs IV, plasma PTH (1-34) by ELISA; type: in vivo, Minipigs (Yorkshire); settings: 0.04 mg
From the text: The PTH (1-34) was processed to prepare albumin microparticles containing PTH according to the procedure mentioned under Example 4. The microparticle of albumin crystals containing PTH was then lyophilized after washing with cold isopropanol.
as §1

[3] = Pharmacokinetics of Octreotide in albumin crystal sugar truffle shell vs IV, plasma Octreotide by ELISA; type: in vivo, Wistar Rats; settings: 0.1 mg
From the text: Rats in the oral treatment group was fasted overnight. […] The time of dosage of each animal was noted. […] Biosystems protocol.

[4] = female, Yorkshire, minipig, plasma, iv
[5] = female, Yorkshire, minipig, plasma, iv, IV, read-out: AUC 0-inf_pred
[6] = female, Yorkshire, minipig, plasma, iv, IV, read-out: AUC 0-t
[7] = female, Yorkshire, minipig, plasma, iv, IV, read-out: AUC t-inf_obs
[8] = female, Yorkshire, minipig, plasma, iv, IV, read-out: AUC t-inf_pred
[9] = female, Yorkshire, minipig, plasma, iv, IV, read-out: MRT 0-inf_obs
[10] = female, Yorkshire, minipig, plasma, iv, IV, read-out: MRT 0-inf_pred
[11] = female, Yorkshire, minipig, plasma, iv, read-out: MRT 0-t
[12] = female, Yorkshire, minipig, plasma, iv, read-out: t½ (converted)

For CC[C@H](C)[C@H](NC(=O)[C@H](CCC(=O)O)NC(=O)[C@H](CO)NC(=O)[C@@H](NC(=O)[C@@H](N)CO)C(C)C)C(=O)N[C@@H](CCC(N)=O)C(=O)N[C@@H](CC(C)C)C(=O)N[C@@H](CCSC)C(=O)N[C@@H](Cc1cnc[nH]1)C(=O)N[C@@H](CC(N)=O)C(=O)N[C@@H](CC(C)C)C(=O)NCC(=O)N[C@@H](CCCCN)C(=O)N[C@@H](Cc1cnc[nH]1)C(=O)N[C@@H](CC(C)C)C(=O)N[C@@H](CC(N)=O)C(=O)N[C@@H](CO)C(=O)N[C@@H](CCSC)C(=O)N[C@@H](CCC(=O)O)C(=O)N[C@@H](CCCN=C(N)N)C(=O)N[C@H](C(=O)N[C@@H](CCC(=O)O)C(=O)N[C@@H](Cc1c[nH]c2ccccc12)C(=O)N[C@@H](CC(C)C)C(=O)N[C@@H](CCCN=C(N)N)C(=O)N[C@@H](CCCCN)C(=O)N[C@@H](CCCCN)C(=O)N[C@@H](CC(C)C)C(=O)N[C@@H](CCC(N)=O)C(=O)N[C@@H](CC(=O)O)C(=O)N[C@H](C(=O)N[C@@H](Cc1cnc[nH]1)C(=O)N[C@@H](CC(N)=O)C(=O)N[C@@H](Cc1ccccc1)C(=O)O)C(C)C)C(C)C [PTH (1-34)], the “AUMC 0-inf_obs” value ([1]; IV) was 4903.835 pg/ml * h^2, the “AUMC 0-inf_pred” value ([1]; IV) was 4888.052 pg/ml * h^2 and the “AUMC 0-t/0-inf_obs” value ([1]; IV) was 0.779. The “AUMC 0-t/0-inf_pred” value ([1]; IV) was 0.782, the “AUMC t-inf_pred” value ([1]; IV) was 1065.980 pg/ml * h^2 and the AUMC_0-t ([1]; IV) was 3822.072 pg/ml * h^2. The AUMC_t-inf obs ([1]; IV) was 1081.763 pg/ml * h^2, the Cl_obs ([1]; IV) was 0.000 (mg)/(pg/ml)/h and the Cl_pred ([1]; IV) was 0.000 (mg)/(pg/ml)/h. For the same compound, the Clast_obs ([1]; IV) was 0.01543 ng/mL, the Clast_pred ([1]; IV) was 0.015205 ng/mL and the Lambda_z ([1]; IV) was 0.233 h⁻¹. For the same compound, the Tlast ([1]; IV) was 12.000 h, the C0 [1, 4] was 1.43 ng/mL and the Cmax [1, 4] was 2.9 ng/mL. It also gave a Tmax [1, 4] of 9.6 min, an AUC(0-inf) ([1]; female, Yorkshire, minipig, plasma, iv, IV, read-out: AUC 0-inf obs) of 2.72 ng·h/mL and an AUC(0-inf) [1, 5] of 2.72 ng·h/mL. For the same compound, the AUC(0-t) [1, 6] was 2.65 ng·h/mL, the AUC(0-t) [1, 7] was 0.0664 ng·h/mL and the AUC(0-t) [1, 8] was 0.0654 ng·h/mL. For the same compound, the MRT inf [1, 9] was 1.8 h, the MRT inf [1, 10] was 1.8 h and the MRT last [1, 11] was 1.44 h. The half-life [1, 12] was 2.98 h, the level at 0 h ([1]; female, Yorkshire, minipig, plasma, 0 h, IV, read-out: Mean PTH (1-34) levels) was 1.43 ± 0.105 ng/mL and the level at 0.08 h ([1]; female, Yorkshire, minipig, plasma, 0.08 h, IV, read-out: Mean PTH (1-34) levels) was 2.82 ± 0.197 ng/mL. It also gave a level at 0.16 h ([1]; female, Yorkshire, minipig, plasma, 0.16 h, IV, read-out: Mean PTH (1-34) levels) of 2.9 ± 0.307 ng/mL, a level at 0.5 h ([1]; female, Yorkshire, minipig, plasma, 0.5 h, IV, read-out: Mean PTH (1-34) levels) of 1.62 ± 0.23 ng/mL and a level at 1 h ([1]; female, Yorkshire, minipig, plasma, 1 h, IV, read-out: Mean PTH (1-34) levels) of 0.421 ± 0.126 ng/mL. The level at 2 h ([1]; female, Yorkshire, minipig, plasma, 2 h, IV, read-out: Mean PTH (1-34) levels) was 0.165 ± 0.0395 ng/mL, the level at 4 h ([1]; female, Yorkshire, minipig, plasma, 4 h, IV, read-out: Mean PTH (1-34) levels) was 0.0908 ± 0.00755 ng/mL and the level at 12 h ([1]; female, Yorkshire, minipig, plasma, 12 h, IV, read-out: Mean PTH (1-34) levels) was 0.0154 ± 0.00157 ng/mL. The “Mean PTH (1-34) levels” value ([2]; 0 h, IV) was 1429.01 ± 104.61 pg/mL, the “Mean PTH (1-34) levels” value ([2]; 0.08 h, IV) was 2822.98 ± 196.91 pg/mL and the “Mean PTH (1-34) levels” value ([2]; 0.16 h, IV) was 2898.29 ± 307.43 pg/mL. For the same compound, the “Mean PTH (1-34) levels” value ([2]; 0.5 h, IV) was 1619.38 ± 229.76 pg/mL, the “Mean PTH (1-34) levels” value ([2]; 1 h, IV) was 421.23 ± 126.34 pg/mL and the “Mean PTH (1-34) levels” value ([2]; 2 h, IV) was 164.93 ± 39.5 pg/mL. For the same compound, the “Mean PTH (1-34) levels” value ([2]; 4 h, IV) was 90.76 ± 7.55 pg/mL, the “Mean PTH (1-34) levels” value ([2]; 12 h, IV) was 15.43 ± 1.57 pg/mL and the “AUMC 0-inf_obs” value ([2]; IV) was 4903.835 pg/ml * h^2. The “AUMC 0-inf_pred” value ([2]; IV) was 4888.052 pg/ml * h^2, the “AUMC 0-t” value ([2]; IV) was 3822.072 pg/ml * h^2 and the “AUMC 0-t/0-inf_obs” value ([2]; IV) was 0.779. For the same compound, the “AUMC 0-t/0-inf_pred” value ([2]; IV) was 0.782, the “AUMC t-inf_obs” value ([2]; IV) was 1081.763 pg/ml * h^2 and the “AUMC t-inf_pred” value ([2]; IV) was 1065.980 pg/ml * h^2. The Cl_obs ([2]; IV) was 0.000 (mg)/(pg/ml)/h, the Cl_pred ([2]; IV) was 0.000 (mg)/(pg/ml)/h and the Clast_pred ([2]; IV) was 0.015205 ng/mL. It also gave a Lambda_z ([2]; IV) of 0.233 h⁻¹, a Tlast ([2]; IV) of 12.000 h and a C0 [2, 4] of 1.43 ng/mL. For the same compound, the Cmax [2, 4] was 2.9 ng/mL, the Tmax [2, 4] was 9.6 min and the AUC(0-inf) ([2]; female, Yorkshire, minipig, plasma, iv, IV, read-out: AUC 0-inf_obs) was 2.72 ng·h/mL. It also gave an AUC(0-inf) [2, 5] of 2.72 ng·h/mL, an AUC(0-t) [2, 6] of 2.65 ng·h/mL and an AUC(0-t) [2, 7] of 0.0664 ng·h/mL. For the same compound, the AUC(0-t) [2, 8] was 0.0654 ng·h/mL, the MRT inf [2, 9] was 1.8 h and the MRT inf [2, 10] was 1.8 h. It also gave a level at 12 h ([2]; female, Yorkshire, minipig, plasma, iv, read-out: Clast_obs) of 0.0154 ng/mL, an MRT last [2, 11] of 1.44 h and a half-life [2, 12] of 2.98 h.
With C[C@@H](O)[C@@H]1NC(=O)[C@H](CCCCN)NC(=O)[C@@H](Cc2c[nH]c3ccccc23)NC(=O)[C@H](Cc2ccccc2)NC(=O)[C@@H](NC(=O)[C@H](N)Cc2ccccc2)CSSC[C@@H](C(=O)N[C@H](CO)[C@@H](C)O)NC1=O (relative stereo) [Octreotide, L-cysteinamide, D-phenylalanyl-L-cysteinyl-L-phenylalanyl-D-tryptophyl-L-lysyl-L-threonyl-N-[2-hydroxy-1-(hydroxy-methyl)propyl]-, cyclic (2→7)-disulfide; [R-(R*,R*)]] the Cl_pred ([3]; IV) was 6.036E−06 (mg)/(ng/ml)/h, the Vss_obs ([3]; IV) was 0.0001111 (mg)/(ng/ml) and the Vss_pred ([3]; IV) was 0.0001107 (mg)/(ng/ml). The Vz_obs ([3]; IV) was 0.0001106 (mg)/(ng/ml), the Vz_pred ([3]; IV) was 0.0001118 (mg)/(ng/ml) and the C0 ([3]; male, Wistar, rat, in vivo, iv) was 3830 ng/mL. It also gave a Cmax ([3]; male, Wistar, rat, in vivo, iv) of 5390 ng/mL, a Tmax ([3]; male, Wistar, rat, in vivo, iv) of 2 h and an AUC(0-inf) ([3]; male, Wistar, rat, in vivo, iv, IV, read-out: AUC 0-inf_obs) of 105000 ng·h/mL. For the same compound, the AUC(0-inf) ([3]; male, Wistar, rat, in vivo, iv, IV, read-out: AUC 0-inf_pred) was 104000 ng·h/mL, the AUC(0-t) ([3]; male, Wistar, rat, in vivo, iv, IV, read-out: AUC 0-t) was 74200 ng·h/mL and the AUC(0-t) ([3]; male, Wistar, rat, in vivo, iv, IV, read-out: AUC t-inf_obs) was 30500 ng·h/mL. It also gave an AUC(0-t) ([3]; male, Wistar, rat, in vivo, iv, IV, read-out: AUC t-inf_pred) of 29400 ng·h/mL, an MRT inf ([3]; male, Wistar, rat, in vivo, iv, IV, read-out: MRT 0-inf_obs) of 18.6 h and an MRT inf ([3]; male, Wistar, rat, in vivo, iv, IV, read-out: MRT 0-inf_pred) of 18.3 h. The MRT last ([3]; male, Wistar, rat, in vivo, iv, read-out: MRT 0-t) was 8.78 h, the half-life ([3]; male, Wistar, rat, in vivo, iv, read-out: t½ (converted)) was 12.8 h and the level at 0 h ([3]; male, Wistar, rat, in vivo, 0 h, IV) was 3830 ± 1290 ng/mL. The level at 0.25 h ([3]; male, Wistar, rat, in vivo, 0.25 h, IV) was 4390 ± 559 ng/mL, the level at 0.5 h ([3]; male, Wistar, rat, in vivo, 0.5 h, IV) was 3170 ± 924 ng/mL and the level at 1 h ([3]; male, Wistar, rat, in vivo, 1 h, IV) was 4130 ± 1170 ng/mL. It also gave a level at 2 h ([3]; male, Wistar, rat, in vivo, 2 h, IV) of 5390 ± 356 ng/mL, a level at 4 h ([3]; male, Wistar, rat, in vivo, 4 h, IV) of 5150 ± 704 ng/mL and a level at 8 h ([3]; male, Wistar, rat, in vivo, 8 h, IV) of 3160 ± 1390 ng/mL.

Reference: US12533321B2, “Polypeptide formulations for oral delivery” (Bhami's Research Laboratory, Pvt. Ltd., priority 2022, dated 2026)
